Measurements: patent US20170248616A1, “IN VITRO COMPOSITIONS COMPRISING HUMAN SAMPLE AND AMYLOID TARGETING AGENT” (Amydis Diagnostics, Inc., priority 2014, published 2017)

Molecular target: T1, amyloid deposits in hippocampal brain sections (Homo sapiens, UniProt P05067)
T1 construct: from tissue; host or cells: hippocampal brain sections of a mouse model for Alzheimer's disease
Experiment: Fluorescence labeling of amyloid deposits in hippocampal brain sections from a mouse model for Alzheimer's disease
Conditions: excitation wavelength 488 nm; fluorescence micrographs
Description: An excitation wavelength of 488 nm was used to excite the fluorophores. FIG. 13. […] An excitation wavelength of 488 nm was used to excite the fluorophores.

T1 sequence (P05067 672-713 limits assumed): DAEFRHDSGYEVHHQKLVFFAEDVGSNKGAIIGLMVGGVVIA

COCCOCCOCCNC(=O)/C(C#N)=C/c1ccc2cc(N3CCCCC3)ccc2c1 [Compound 1, 2-cyano-N-(2-(2-(2-methoxyethoxy)ethoxy)ethyl)-3-(6-(piperidin-1-yl)naphthalen-2-yl)acrylamide]
fluorescence labeling of amyloid deposits: fluorescence labeling of amyloid deposits

COCCOCCOCCNS(=O)(=O)/C(C#N)=C/c1ccc2cc(N3CCCCC3)ccc2c1 [Compound 2, 1-cyano-N-(2-(2-(2-methoxyethoxy)ethoxy)ethyl)-2-(6-(piperidin-1-yl)naphthalen-2-yl)ethenesulfonamide]
fluorescence labeling of amyloid deposits: fluorescence labeling of amyloid deposits
